# Tests used:
# Type in all cases: in vivo, rabbit
# collagen type IV [1] = test: DMR model: IHC collagen type IV intensity in posterior stroma (ImageJ); settings: one month
# Method: (§1) The rabbits had general anaesthesia with 30 mg/kg ketamine hydrochloride and 5 mg/kg xylazine by IM injection. In addition, topical proparacaine hydrochloride 1% (Alcon, Ft Worth, TX, USA) was applied to each eye prior to the surgery. One cornea selected at random in each group either had sham surgery without Descemetorhexis or an 8 mm diameter central Descemet's membrane-endothelial excision. The time point of one month after surgery was selected for the study because myofibroblasts and fibrosis in the posterior cornea was maximal at this time point in a prior time course Descemetorhexis study (Sampaio et al., 2021). Descemetorhexis was performed as described in the prior study (Sampaio et al., 2021). Briefly, a wire lid speculum was placed into one eye of each rabbit and an 8 mm diameter gentian violet circle was marked on the epithelial surface for reference. A limbal entry incision was created with a 1.6 mm blade (Bausch and Lomb, Rochester, NY, USA) and 0.3 ml Healon OVD (Abbott Medical Optics Inc. Santa Ana, CA, USA) was injected into the anterior chamber. A reversed Sinskey hook (Katena, Denville, New Jersey, USA) was placed into the anterior chamber and an 8 mm diameter disc of Descemet's membrane and endothelium was excised underlying the 8 mm area previously marked on the anterior corneal surface, without a subsequent endothelial corneal transplant. No removal of Descemet's membrane or endothelium was performed in unwounded sham surgery eyes. Remaining Healon OVD was removed with a Simcoe irrigation and aspiration cannula (Bausch & Lomb, Storz, Rochester, NY, USA) and the anterior chamber was filled with balanced salt solution (BSS). A single 10-0 nylon suture was placed at the incision site to prevent leakage from the anterior chamber. One drop of ciprofloxacin (Alcon, Ft. Worth, TX, USA) was applied to the corneas immediately after surgery and four times a day until the epithelium entry wound healed at approximately 2 days.
# The oral solution was prepared with 5 ml distilled water+50 ml ora-plus (suspending vehicle—Perrigo, Dublin, Ireland)+45 ml Ora-sweet (flavored syrup vehicle—Perrigo).
# Duplex immunohistochemistry (IHC) was performed after masking of slides by a researcher not involved in the analysis using previously described methods (de Oliveira et al., 2021) using primary antibodies (Table 2) confirmed by western blotting and IHC to recognize rabbit antigens or isotypic control antibodies (ThermoFisher Scientific, Waltham, MA), and secondary fluorescent tagged antibodies (Table 3).
# The AB769 (Millipore, Temecula CA) collagen type IV antibody used in this study was generated against purified human and bovine collagen type IV, affinity purified with human and bovine collagen type IV crosslinked to agarose and cross-absorbed by the manufacturer with human and bovine collagens type I, II, III, V and VI to eliminate cross-reactivity. […]
# Collagen type IV intensity in immunohistochemistry images was quantitated in 0.75 W×0.5H rectangles of posterior stroma tangent to the posterior corneal surface using ImageJ on 7.62 cm wide×5.69 cm height and 300 DPI images generated using standardized microscopic illumination settings applied to all sections. The quantitation rectangles were positioned such that the posterior side of the rectangle was tangent to the posterior corneal surface just anterior to Descemet's membrane, if one was present, in the analysed specimens. […]
# collagen type IV [2] = test: Alkali burn model: IHC collagen type IV intensity in anterior and posterior stroma (ImageJ); settings: one month
# Method: Worth, TX) and a 5 mm diameter circular Whatman No. 1 filter paper (Cat #1001-6508, Fisher Scientific) wetted with 100 μl of 1N NaOH solution. Following the alkali burn injury, the cornea was irrigated profusely with BSS. Each injured cornea also received one drop of ciprofloxacin (Alcon, Ft. Worth, TX, USA) ten minutes after surgery and four times a day for one week and at least 15 minutes apart from the study medications. […] Worth TX), at least 5 minutes apart, or 4) 50 μl of BSS. Multiplex immunohistochemistry (IHC) was performed using previously described methods^8 and primary antibodies (Table 7) confirmed by western blotting and IHC to recognize rabbit antigens or isotypic control antibodies (Thermo Fisher Scientific, Waltham, MA), and secondary fluorescent tagged antibodies (Table 7). The collagen type IV antibody (Cat. #AB769, Millipore, Temecula CA) was raised against purified human and bovine collagen type IV that had been affinity purified with human and bovine collagen type IV crosslinked to agarose and cross-absorbed by the manufacturer with human and bovine collagens type I, II, III, V and VI to eliminate cross-reactivity. This collagen type IV antibody was shown previously to bind rabbit collagen IV in IHC,^8,9 and recognizes the alpha-1/alpha-2 chains but not the alpha-3 to alpha-6 chains. The keratocan antibody is raised against peptide […]-OH (SEQ ID NO:1). This marker was used to identify keratocytes in situ. […] All corneas in each group had IHC for collagen type IV. Images from each cornea were converted to uniform 300 DPI, 875×568 pixel, files. […] The staining intensity within each box was determined with the analyze histogram function and the mean of three boxes was the intensity value in the anterior or posterior stroma for that cornea.
# collagen type IV [3] = test: -9D PRK model: IHC stromal collagen type IV pixels (ImageJ); settings: losartan-treated group, one month
# Method: Twelve female 12- to 15-week-old New Zealand white rabbits weighing 2.5 to 3 kg each were included. Starting 24 hours prior to surgery and continuing 5 days after PRK, all rabbits received 60 mL children's liquid acetaminophen (Johnson & Johnson, Ft. Washington, PA, USA) per 1 L of drinking water. One eye of each rabbit was randomly selected to have −9.0 D (on myopia scale) PRK and received 2 drops of topical 1% proparacaine hydrochloride (Alcon, Fort Worth, TX, USA) prior to the surgery.
# No corticosteroids were administered in either group.
# Corneal Cryo-Fixation and Sectioning Rabbits were euthanized while under ketamine-xylazine general anesthesia with 100 mg/kg Beuthanasia (Shering-Plough, Kenilworth, NJ, USA) by intravenous injection followed by bilateral pneumothorax. The corneo-scleral rims were removed with sharp Westcott scissors (Fairfield, CT, USA) and 0.12 forceps (Storz, St Louis, MO, USA). […]
# All images were converted to 300 DPI 900 pixel width×672 pixel height images with Photoshop 22.1.1 (Adobe, San Jose, CA). The mean pixels of stromal α-SMA or stromal collagen type IV were determined in a 900-pixel wide×235-pixel high rectangle (for either α-SMA or collagen type IV quantitation) with ImageJ in three sections for each cornea using the image panels showing only the color of interest. […]
# TGF beta-1 = test: DMR model: IHC TGF beta-1 in posterior stroma; settings: topical and/or oral losartan, one month
# Method: as §1, with “No removal of Descemet's membrane or endothelium was performed in unwounded sham surgery eyes. Remaining Healon OVD was removed with a Simcoe irrigation and aspiration cannula (Bausch & Lomb, Storz, Rochester, NY, USA) and the anterior chamber was filled with balanced salt solution (BSS). A single 10-0 nylon suture was placed at the incision site to prevent leakage from the anterior chamber. One drop of ciprofloxacin (Alcon, Ft. Worth, TX, USA) was applied to the corneas immediately after surgery and four times a day until the epithelium entry wound healed at approximately 2 days.” left out
# [4] = topical losartan and oral losartan
smiles,measurement,setting,value
CCCCc1nc(Cl)c(CO)n1Cc1ccc(-c2ccccc2-c2nn[nH]n2)cc1 [losartan],collagen type IV production in the posterior stroma,collagen type IV [1]; oral losartan alone,no significant effect
same,collagen type IV localization in posterior stroma (IHC),collagen type IV [1]; topical losartan alone,primarily detected adjacent to the posterior surfaces
same,collagen type IV vs DMR corneas treated with topical losartan alone,collagen type IV [1]; [4],not different
same,posterior stromal collagen type IV production compared to topical vehicle and oral vehicle (ImageJ intensity),collagen type IV [1]; [4],significantly decreased
same,posterior stromal collagen type IV production compared to topical vehicle and oral vehicle (ImageJ intensity),collagen type IV [1]; topical losartan,significantly decreased
same,COL IV staining intensity in the posterior stroma vs vehicle treatment,collagen type IV [2],significantly different
same,mean intensity units of collagen type IV in the anterior stroma compared to vehicle treatment,collagen type IV [2],significantly decreased
same,collagen type IV localization (IHC),collagen type IV [3],localized primarily to the epithelial basement membrane
same,levels of TGF beta-1 in the posterior stroma or at the posterior stromal surface compared to vehicle-treated corneas,TGF beta-1,No effect
